Values after ≈ are worked out from the molar mass of the structure shown.
Assays:
[1] = tested on: HSV-1(E-377); test: plaque reduction, HSV-1(E-377) in Vero cells; format: cell-based, Herpes simplex virus type 1; conditions: Human alphaherpesvirus 1, plaque reduction 50%, read-out: MIC50
Protocol: After the adsorption period, the infected cell monolayers were treated in duplicate with serial dilutions of the test compound. Duplicate cell controls containing medium alone and virus controls containing medium and virus were run simultaneously with the test compound. […] Plaques visible to the unaided eye were counted and the mean number of plaques in the duplicate wells for each compound concentration tested and for the untreated, virus infected controls were determined.

[2] = tested on: duck hepatitis B virus (DHBV); test: efficacy against hepatitis B virus in vivo in ducklings; design: species or system Peking duckling infected with duck hepatitis B virus
Protocol: The test method is an adaptation of the method of Smee, et al., Antimicrob. Agents Chemotherap. 27 277 (1985). The serum level of duck hepatitis B virus (DHBV) DNA was monitored in 6 infected Peking ducklings from age 6 days to age 27 days. Four ducklings were treated with 70 mg/kg/day IP, b.i.d. of the test compound as a 3 mg/ml solution in 0.9% aqueous NaCl on days 10-17. Two control ducklings were treated with 23 ml/kg/day IP, b.i.d. of 0.9% aqueous NaCl on days 10-17. The level of DHBV DNA in the duckling serum was measured daily.

[3] = drug cytotoxicity in Vero cells (CPE-inhibition assay); conditions: monkey, vero cells
[4] = tested on: Vero cells; test: as above; conditions: Vero
[5] = compound cytotoxicity in ATH8 cells (HIV CPE inhibition assay); format: cell-based; conditions: human, read-out: MTC
Protocol: The ATH8 human T-cell line expresses high levels of the CD4 surface antigen and is quite sensitive to the cytopathogenic effect (CPE) of HIV. The cells were propagated in RPMI 1640 medium supplemented with 4mM glutamine, 15% heat-inactivated fetal bovine serum (Biocell), antibiotics (50 units of penicillin and […] of streptomycin per ml), and 50 units of recombinant-derived human interleukin-2 (ala-125; AMGen Biologicals) per ml.
ATH8 cells were used as the primary target in the HIV induced CPE inhibition assay. Cells were treated with polybrene (2 ug/ml in growth medium) for 30 minutes at 37° C., then collected by gentle centrifugation (40×g for 15 minutes at room temperature) and resuspended in clarified (8000×g for 15 minutes at 4° C.) supernate freshly harvested from 48 hours post passage H9/HTL IIIB cells. Following a 60-minute adsorption period at 37° C., the cells were dispensed into the U-bottom wells of 96-well trays (1×10^4 cells in 0.1 ml per well). […] Test compounds were evaluated at seven half-log dilutions ranging from 100 uq/ml to 0.1 uq/ml. […]
Between 7 and 10 days post infection, all wells were visually monitored for the degree of CPE inhibition as reflected by cell pellet size, and aliquots were taken from selected wells for determination of cell number and viability (based on trypan blue dye exclusion).

What does the source list for `Nc1nc2c(ncn2C2CC(CO)C2CO)c(=O)[nH]1` (stereo not drawn) [Example 1I, 9-(2',3'-Bis(hydroxymethyl)cyclobutyl)guanine]?
EC50 [1]: 0.5 µg/mL (≈ 1.88 µM); Serum DHBV DNA ([2]; duck 1, age 6 days, before treatment): 187 ng/mL; Serum DHBV DNA ([2]; duck 1, age 7 days, before treatment): 156 ng/mL; Serum DHBV DNA ([2]; duck 1, age 8 days, before treatment): 168 ng/mL; Serum DHBV DNA ([2]; duck 1, age 9 days, before treatment): 233 ng/mL; Serum DHBV DNA ([2]; duck 1, age 10 days, 70 mg/kg/day IP days 10-17): 213 ng/mL; Serum DHBV DNA ([2]; duck 1, age 11 days, 70 mg/kg/day IP days 10-17): 155 ng/mL; Serum DHBV DNA ([2]; duck 1, age 12 days, 70 mg/kg/day IP days 10-17): 64 ng/mL; Serum DHBV DNA ([2]; duck 1, age 13 days, 70 mg/kg/day IP days 10-17): 11 ng/mL; Serum DHBV DNA ([2]; duck 1, age 14 days, 70 mg/kg/day IP days 10-17): 6 ng/mL; Serum DHBV DNA ([2]; duck 1, age 15 days, 70 mg/kg/day IP days 10-17): < 1 ng/mL; Serum DHBV DNA ([2]; duck 1, age 16 days, 70 mg/kg/day IP days 10-17): < 1 ng/mL; Serum DHBV DNA ([2]; duck 1, age 17 days, 70 mg/kg/day IP days 10-17): < 1 ng/mL; Serum DHBV DNA ([2]; duck 1, age 18 days, 70 mg/kg/day IP days 10-17): < 1 ng/mL; Serum DHBV DNA ([2]; duck 1, age 19 days, 70 mg/kg/day IP days 10-17): < 1 ng/mL; Serum DHBV DNA ([2]; duck 1, age 20 days, 70 mg/kg/day IP days 10-17): < 1 ng/mL; Serum DHBV DNA ([2]; duck 1, age 21 days, 70 mg/kg/day IP days 10-17): < 1 ng/mL; Serum DHBV DNA ([2]; duck 1, age 22 days, 70 mg/kg/day IP days 10-17): 3 ng/mL; Serum DHBV DNA ([2]; duck 1, age 23 days, 70 mg/kg/day IP days 10-17): 12 ng/mL; Serum DHBV DNA ([2]; duck 1, age 24 days, 70 mg/kg/day IP days 10-17): 16 ng/mL; Serum DHBV DNA ([2]; duck 1, age 25 days, 70 mg/kg/day IP days 10-17): 31 ng/mL; Serum DHBV DNA ([2]; duck 1, age 26 days, 70 mg/kg/day IP days 10-17): 71 ng/mL; Serum DHBV DNA ([2]; duck 1, age 27 days, 70 mg/kg/day IP days 10-17): 134 ng/mL; Serum DHBV DNA ([2]; duck 2, age 6 days, before treatment): 143 ng/mL; Serum DHBV DNA ([2]; duck 2, age 7 days, before treatment): 111 ng/mL; Serum DHBV DNA ([2]; duck 2, age 8 days, before treatment): 121 ng/mL; Serum DHBV DNA ([2]; duck 2, age 9 days, before treatment): 102 ng/mL; Serum DHBV DNA ([2]; duck 2, age 10 days, 70 mg/kg/day IP days 10-17): 120 ng/mL; Serum DHBV DNA ([2]; duck 2, age 11 days, 70 mg/kg/day IP days 10-17): 61 ng/mL; Serum DHBV DNA ([2]; duck 2, age 12 days, 70 mg/kg/day IP days 10-17): 27 ng/mL; Serum DHBV DNA ([2]; duck 2, age 13 days, 70 mg/kg/day IP days 10-17): 2 ng/mL; Serum DHBV DNA ([2]; duck 2, age 14 days, 70 mg/kg/day IP days 10-17): 1 ng/mL; Serum DHBV DNA ([2]; duck 2, age 15 days, 70 mg/kg/day IP days 10-17): < 1 ng/mL; Serum DHBV DNA ([2]; duck 2, age 16 days, 70 mg/kg/day IP days 10-17): < 1 ng/mL; Serum DHBV DNA ([2]; duck 2, age 17 days, 70 mg/kg/day IP days 10-17): < 1 ng/mL; Serum DHBV DNA ([2]; duck 2, age 18 days, 70 mg/kg/day IP days 10-17): < 1 ng/mL; Serum DHBV DNA ([2]; duck 2, age 19 days, 70 mg/kg/day IP days 10-17): < 1 ng/mL; Serum DHBV DNA ([2]; duck 2, age 20 days, 70 mg/kg/day IP days 10-17): < 1 ng/mL; Serum DHBV DNA ([2]; duck 2, age 21 days, 70 mg/kg/day IP days 10-17): < 1 ng/mL; Serum DHBV DNA ([2]; duck 2, age 22 days, 70 mg/kg/day IP days 10-17): < 1 ng/mL; Serum DHBV DNA ([2]; duck 2, age 23 days, 70 mg/kg/day IP days 10-17): < 1 ng/mL; Serum DHBV DNA ([2]; duck 2, age 24 days, 70 mg/kg/day IP days 10-17): < 1 ng/mL; Serum DHBV DNA ([2]; duck 2, age 25 days, 70 mg/kg/day IP days 10-17): 2 ng/mL; Serum DHBV DNA ([2]; duck 2, age 26 days, 70 mg/kg/day IP days 10-17): 2 ng/mL; Serum DHBV DNA ([2]; duck 2, age 27 days, 70 mg/kg/day IP days 10-17): 7 ng/mL; Serum DHBV DNA ([2]; duck 3, age 6 days, before treatment): 520 ng/mL; Serum DHBV DNA ([2]; duck 3, age 7 days, before treatment): 311 ng/mL; Serum DHBV DNA ([2]; duck 3, age 8 days, before treatment): 277 ng/mL; Serum DHBV DNA ([2]; duck 3, age 9 days, before treatment): 412 ng/mL; Serum DHBV DNA ([2]; duck 3, age 10 days, 70 mg/kg/day IP days 10-17): 377 ng/mL; Serum DHBV DNA ([2]; duck 3, age 11 days, 70 mg/kg/day IP days 10-17): 130 ng/mL; Serum DHBV DNA ([2]; duck 3, age 12 days, 70 mg/kg/day IP days 10-17): 77 ng/mL; Serum DHBV DNA ([2]; duck 3, age 13 days, 70 mg/kg/day IP days 10-17): 16 ng/mL; Serum DHBV DNA ([2]; duck 3, age 14 days, 70 mg/kg/day IP days 10-17): 2 ng/mL; Serum DHBV DNA ([2]; duck 3, age 15 days, 70 mg/kg/day IP days 10-17): 2 ng/mL; Serum DHBV DNA ([2]; duck 3, age 16 days, 70 mg/kg/day IP days 10-17): < 1 ng/mL; Serum DHBV DNA ([2]; duck 3, age 17 days, 70 mg/kg/day IP days 10-17): < 1 ng/mL; Serum DHBV DNA ([2]; duck 3, age 18 days, 70 mg/kg/day IP days 10-17): < 1 ng/mL; Serum DHBV DNA ([2]; duck 4, age 6 days, before treatment): 288 ng/mL; Serum DHBV DNA ([2]; duck 4, age 7 days, before treatment): 215 ng/mL; Serum DHBV DNA ([2]; duck 4, age 8 days, before treatment): 256 ng/mL; Serum DHBV DNA ([2]; duck 4, age 9 days, before treatment): 311 ng/mL; Serum DHBV DNA ([2]; duck 4, age 10 days, 70 mg/kg/day IP days 10-17): 333 ng/mL; Serum DHBV DNA ([2]; duck 4, age 11 days, 70 mg/kg/day IP days 10-17): 132 ng/mL; Serum DHBV DNA ([2]; duck 4, age 12 days, 70 mg/kg/day IP days 10-17): 21 ng/mL; Serum DHBV DNA ([2]; duck 4, age 13 days, 70 mg/kg/day IP days 10-17): 2 ng/mL; Serum DHBV DNA ([2]; duck 4, age 14 days, 70 mg/kg/day IP days 10-17): 1 ng/mL; Serum DHBV DNA ([2]; duck 4, age 15 days, 70 mg/kg/day IP days 10-17): 1 ng/mL; Serum DHBV DNA ([2]; duck 4, age 16 days, 70 mg/kg/day IP days 10-17): 1 ng/mL; Serum DHBV DNA ([2]; duck 4, age 17 days, 70 mg/kg/day IP days 10-17): < 1 ng/mL; Serum DHBV DNA ([2]; duck 4, age 18 days, 70 mg/kg/day IP days 10-17): < 1 ng/mL; Serum DHBV DNA ([2]; duck 4, age 19 days, 70 mg/kg/day IP days 10-17): < 1 ng/mL; Serum DHBV DNA ([2]; duck 4, age 20 days, 70 mg/kg/day IP days 10-17): < 1 ng/mL; Serum DHBV DNA ([2]; duck 4, age 21 days, 70 mg/kg/day IP days 10-17): < 1 ng/mL; Serum DHBV DNA ([2]; duck 4, age 22 days, 70 mg/kg/day IP days 10-17): < 1 ng/mL; Serum DHBV DNA ([2]; duck 4, age 23 days, 70 mg/kg/day IP days 10-17): < 1 ng/mL; Serum DHBV DNA ([2]; duck 4, age 24 days, 70 mg/kg/day IP days 10-17): < 1 ng/mL; Serum DHBV DNA ([2]; duck 4, age 25 days, 70 mg/kg/day IP days 10-17): < 1 ng/mL; death of treated ducks ([2]; ducks 3 and 4, 70 mg/kg/day IP b.i.d. days 10-17): ducks 3 and 4 died on day 18 and day 26, respectively; MCC [3]: 100 µg/mL; MCC ([3]; MTC (minimum drug concentration causing any cytotoxicity), Vero, HSV-2 (MS) experiment): 320 µg/mL; MTC (minimum drug concentration causing any cytotoxicity) ([4]; HSV-2 (BW9787) TK- experiment): 100 µg/mL; MTC (minimum drug concentration causing any cytotoxicity) ([4]; HSV-2 (MS) experiment): 320 µg/mL

For `Nc1ncnc2c1ncn2C1CC(CO)C1CO` (stereo not drawn) [Example 4C, 9-(2',3'-Bis(hydroxymethyl)cyclobutyl)adenine], which MCC [5] is on record?
Its MCC is 3.2 µg/mL.

— patent US5153352A, “Process for preparation of intermediates of carbocyclic nucleoside analogs” (priority 1990, dated 1992)
